In patent publication US20260193170A1 (University of Copenhagen, priority 2022, published 2026) one finds Ki data, which are given here for 30 compounds.

The target of this experiment is T1, human Keap1 Kelch domain (Homo sapiens, UniProt Q14145).
T1 construct: human Keap1 Kelch domain (residue 321-609, UniProt Q14145); made in house; host or cells: Escherichia coli BL21 (DE3) pLysS, pRSET A vector
Put plainly: Fluorescence polarization (FP) competition assay, Cy5-Nrf2 peptide probe. Type of experiment: binding. The note with it: heterologous competition FP; Keap1 Kelch 14 nM, Cy5-Nrf2 probe 3 nM, 4% DMSO; mean ± SEM. Here is the method: The binding affinities between the fluorescent peptide probe Cy5-Nrf2 (SEQ: Cy5-[…]-NH2) and the human Keap1 Kelch domain were determined as Kd values by saturation binding experiments, where increasing concentrations of Keap1 (0-300 nM) were added to a fixed concentration of peptide probe (3 nM). The assay was performed in a 1× HBSTET buffer (10 mM HEPES, 150 mM NaCl, 0.005% Tween20, 3 mM ethylenediaminetetraacetic acid (EDTA), 1 mM TCEP, pH=7.4) using black flat-bottom 384-well plates (Corning Life Sciences, NY), a volume of 30 μL/well, and a final DMSO concentration of 4% or 8%. The assay plate was spun down to ascertain proper mixing and removal of potential air bubbles and incubated for 10-15 min at room temperature before measuring the FP levels on a Safire2 plate reader (Tecan, Mannedorf, Switzerland). The g-factor was adjusted at each experiment so that a series of three blank wells containing probe but no Keap1 Kelch defined the baseline FP value. The Cy5-Nrf2 probe was measured at excitation/emission values of 635:670 nm. The FP values were fitted to the one-site specific binding equation: Y=Bmax×X/(Kd+X), with Bmax being the maximal FP value, X the Keap1 Kelch concentration, and Y the variable FP values. The Kd values were derived from the resulting binding saturation curve as being equal to the Keap1 Kelch concentration, where the curve is half-saturated.
The affinities between nonfluorescent small molecule Keap1 inhibitors and Keap1 Kelch were determined as Ki values in a heterologous competition FP binding assay. This was done by adding increasing concentration of test compound (2-fold serial dilutions, 12 concentrations tested per inhibition curve as duplicates) to a fixed concentration of Keap1 Kelch (14 nM) and the Cy5-Nrf2 peptide probe (3 nM) in the same HBSTET buffer and conditions as described above (final DMSO concentrations were 4%). FP values were fitted to the equation Y=Bottom+(Top−Bottom)/[1+(10^HillSlope×(log IC50−X))], where X is the logarithmic value of compound concentration. Hereby, the IC50 value was obtained, which together with the […] value and probe and Keap1 Kelch concentrations was used to calculate the theoretical competitive inhibition constant, the Ki value. 43 Ki values are shown as mean±SEM (standard error of mean) if based on two or more individual measurements.
(In general: In fluorescence polarisation assays a small probe gives low polarisation when free and higher when bound to something large.)

T1 sequence (Q14145 321-609): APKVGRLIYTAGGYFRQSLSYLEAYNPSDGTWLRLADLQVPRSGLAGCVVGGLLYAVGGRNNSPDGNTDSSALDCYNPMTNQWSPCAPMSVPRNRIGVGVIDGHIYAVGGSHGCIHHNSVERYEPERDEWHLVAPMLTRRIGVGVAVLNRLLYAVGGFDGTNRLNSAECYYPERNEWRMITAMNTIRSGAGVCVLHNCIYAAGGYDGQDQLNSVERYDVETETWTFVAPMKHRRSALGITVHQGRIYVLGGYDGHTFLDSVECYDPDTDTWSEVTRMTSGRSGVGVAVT

The term Ki denotes a dissociation constant, usually derived from enzyme kinetics or from competition with a known ligand. `O=C(O)CC(c1ccc2ccc(OCC(=O)NC3C=CCCC3)cc2c1)c1ccc2occc2c1` (stereo not drawn) [4g, 3-(Benzofuran-5-yl)-3-(7-(2-(cyclohex-2-en-1-ylamino)-2-oxoethoxy)naphthalen-2-yl)propanoic acid]: the Ki was 0.021 ± 0.002 µM.
The result for `COc1ccc(C(CC(=O)O)c2ccc3ccc(OCC(=O)NC4CCCCC4)cc3c2)cc1` (stereo not drawn) [3a, 3-(7-(2-(cyclohexylamino)-2-oxoethoxy)naphthalen-2-yl)-3-(4-methoxyphenyl)propanoic acid] reads 0.07 ± 0.003 µM.
With `Cc1cc2c(cc1C(CC(=O)O)c1ccc3ccc(OCC(=O)NC4CCCCC4)cc3c1)OCO2` (stereo not drawn) [3g, 3-(7-(2-(cyclohexylamino)-2-oxoethoxy)naphthalen-2-yl)-3-(6-methylbenzo[d][1,3]dioxol-5-yl)propanoic acid] the figure was 0.018 ± 0.006 µM; with `O=C(O)CCc1ccc2ccc(OCC(=O)NC3CCCCCC3)cc2c1` [1d, 3-(7-(2-(Cycloheptylamino)-2-oxoethoxy)naphthalen-2-yl)propanoic acid], 6 ± 0.3 µM.
The result for `Cc1cc2c(cc1C(CC(=O)O)c1ccc3ccc(OCC(=O)NC4CCCCCC4)cc3c1)OC(F)(F)O2` (stereo not drawn) [2w, 3-(7-(2-(cycloheptylamino)-2-oxoethoxy)naphthalen-2-yl)-3-(2,2-difluoro-6-methylbenzo[d][1,3]dioxol-5-yl)propanoic acid] reads 0.014 ± 0.002 µM; that for `O=C(O)CC(c1ccc(Cl)cc1)c1ccc2ccc(OCC(=O)NC3CCCCCC3)cc2c1` (stereo not drawn) [2c, 3-(4-Chlorophenyl)-3-(7-(2-(cycloheptylamino)-2-oxoethoxy)naphthalen-2-yl)propanoic acid], 0.294 ± 0.03 µM; that for `O=C(O)CC(c1cccc(Cl)c1)c1ccc2ccc(OCC(=O)NC3CCCCC3)cc2c1` (stereo not drawn) [3d, 3-(3-chlorophenyl)-3-(7-(2-(cyclohexylamino)-2-oxoethoxy)naphthalen-2-yl)propanoic acid], 0.47 ± 0.047 µM.
As for `Cc1cc(C)c(C)c(NC(=O)COc2ccc3ccc(CCC(=O)O)cc3c2)c1C` [1g, 3-(7-(2-Oxo-2-((2,3,5,6-tetramethylphenyl)amino)ethoxy)naphthalen-2-yl)propanoic acid], the Ki was 196 ± 24 µM.
With `O=C(O)CC(c1ccc2c(c1)OC(F)(F)O2)c1ccc2ccc(OCC(=O)NC3CCCCCC3)cc2c1` (stereo not drawn) [2r, 3-(7-(2-(cycloheptylamino)-2-oxoethoxy)naphthalen-2-yl)-3-(2,2-difluorobenzo[d][1,3]dioxol-5-yl)propanoic acid] the figure was 0.034 ± 0.005 µM.
The result for `O=C(O)CC(c1ccc2c(c1)OCCO2)c1ccc2ccc(OCC(=O)NC3C=CCCC3)cc2c1` (stereo not drawn) [4d, 3-(7-(2-(cyclohex-2-en-1-ylamino)-2-oxoethoxy)naphthalen-2-yl)-3-(2,3-dihydrobenzo[b][1,4]dioxin-6-yl)propanoic acid] reads 0.02 ± 0.002 µM; that for `Cc1cc2c(cc1C(CC(=O)O)c1ccc3ccc(OCC(=O)NC4C=CCCC4)cc3c1)OCCO2` (stereo not drawn) [4i, 3-(7-(2-(cyclohex-2-en-1-ylamino)-2-oxoethoxy)naphthalen-2-yl)-3-(7-methyl-2,3-dihydrobenzo[b][1,4]dioxin-6-yl)propanoic acid], 0.017 ± 0.003 µM; that for `O=C(O)CCc1ccc2ccc(OCC(=O)Nc3ccccc3)cc2c1` [1h, 3-(7-(2-oxo-2-(phenylamino)ethoxy)naphthalen-2-yl)propanoic acid], 7.8 ± 0.1 µM.
The result for `Cc1cc2occc2cc1C(CC(=O)O)c1ccc2ccc(OCC(=O)NC3CCCCC3)cc2c1` (stereo not drawn) [3s, 3-(7-(2-(cyclohexylamino)-2-oxoethoxy)naphthalen-2-yl)-3-(6-methylbenzofuran-5-yl)propanoic acid] reads 0.024 ± 0.001 µM; that for `O=C(O)CCc1ccc2ccc(OCC(=O)NC3CCCCC3)cc2c1` [1a, 3-(7-(2-(Cyclohexylamino)-2-oxoethoxy)naphthalen-2-yl)propanoic acid], 14 ± 0.8 µM; that for `COc1ccc(C(CC(=O)O)c2ccc3ccc(OCC(=O)NC4CCCCCC4)cc3c2)c(C)c1` (stereo not drawn) [2k, 3-(7-(2-(Cycloheptylamino)-2-oxoethoxy)naphthalen-2-yl)-3-(4-methoxy-2-methylphenyl)propanoic acid], 0.027 ± 0.003 µM.
For the compound `O=C(O)CC(c1ccc2c(c1)OC(F)(F)O2)c1ccc2ccc(OCC(=O)NC3C=CCCC3)cc2c1` (stereo not drawn) [4f, 3-(7-(2-(Cyclohex-2-en-1-ylamino)-2-oxoethoxy)naphthalen-2-yl)-3-(2,2-difluorobenzo[d][1,3]dioxol-5-yl)propanoic acid], the inhibition constant (Ki) was 0.03 ± 0.002 µM.
As for `O=C(O)CC(c1ccc2c(c1)CCO2)c1ccc2ccc(OCC(=O)NC3CCCCC3)cc2c1` (stereo not drawn) [3i, 3-(7-(2-(cyclohexylamino)-2-oxoethoxy)naphthalen-2-yl)-3-(2,3-dihydrobenzofuran-5-yl)propanoic acid], the Ki came out at 0.082 ± 0.008 µM.
The result for `O=C(O)CC(c1ccccc1)c1ccc2ccc(OCC(=O)NC3CCCCCC3)cc2c1` (stereo not drawn) [2a, 3-(7-(2-(Cycloheptylamino)-2-oxoethoxy)naphthalen-2-yl)-3-phenylpropanoic acid] reads 1.1 ± 0.1 µM; that for `COc1cc(C(CC(=O)O)c2ccc3ccc(OCC(=O)NC4CCCCCC4)cc3c2)cc2nnn(C)c12` (stereo not drawn) [2o, 3-(7-(2-(cycloheptylamino)-2-oxoethoxy)naphthalen-2-yl)-3-(7-methoxy-1-methyl-1H-benzo[d][1,2,3]triazol-5-yl)propanoic acid], 0.0035 ± 0.0006 µM; that for `CN(C(=O)COc1ccc2ccc(C(CC(=O)O)c3ccc4c(c3)OCO4)cc2c1)C1CCCCCC1` (stereo not drawn) [7b, 3-(benzo[d][1,3]dioxol-5-yl)-3-(7-(2-(cycloheptyl(methyl)amino)-2-oxoethoxy)naphthalen-2-yl)propanoic acid], 0.129 ± 0.009 µM.
On to `O=C(O)CC(c1cccc(Cl)c1)c1ccc2ccc(OCC(=O)NC3CCCCCC3)cc2c1` (stereo not drawn) [2i, 3-(3-Chlorophenyl)-3-(7-(2-(cycloheptylamino)-2-oxoethoxy)naphthalen-2-yl)propanoic acid], for which the Ki stood at 0.054 ± 0.006 µM.
With `O=C(O)CC(c1ccc2c(c1)CCO2)c1ccc2ccc(OCC(=O)NC3CCCCCC3)cc2c1` (stereo not drawn) [2q, 3-(7-(2-(cycloheptylamino)-2-oxoethoxy)naphthalen-2-yl)-3-(2,3-dihydrobenzofuran-5-yl)propanoic acid] the figure was 0.036 ± 0.003 µM; with `Cc1cc2c(cc1C(CC(=O)O)c1ccc3ccc(OCC(=O)N[C@H]4C[C@@H]5CC[C@H]4C5)cc3c1)OCO2` (stereo partly drawn) [5c, 3-(7-(2-(((1S,2S,4R)-bicyclo[2.2.1]heptan-2-yl)amino)-2-oxoethoxy)naphthalen-2-yl)-3-(6-methylbenzo[d][1,3]dioxol-5-yl)propanoic acid], 0.007 µM; with `Cc1cc(C)c(NC(=O)COc2ccc3ccc(CCC(=O)O)cc3c2)c(C)c1` [1f, 3-(7-(2-(Mesitylamino)-2-oxoethoxy)naphthalen-2-yl)propanoic acid], 22 ± 0.8 µM.
On to `O=C(O)CC(c1ccc2c(c1)OCO2)c1ccc2ccc(OCC(=O)NC3CCCCC3)cc2c1` (stereo not drawn) [3f, 3-(benzo[d][1,3]dioxol-5-yl)-3-(7-(2-(cyclohexylamino)-2-oxoethoxy)naphthalen-2-yl)propanoic acid], for which the Ki was determined as 0.059 ± 0.006 µM.
The result for `O=C(O)CC(c1ccc2c(c1)OCCO2)c1ccc2ccc(OCC(=O)NC3CCCCCC3)cc2c1` (stereo not drawn) [2s, 3-(7-(2-(cycloheptylamino)-2-oxoethoxy)naphthalen-2-yl)-3-(2,3-dihydrobenzo[b][1,4]dioxin-6-yl)propanoic acid] reads 0.015 ± 0.003 µM; that for `CC(C)Oc1ccc(C(CC(=O)O)c2ccc3ccc(OCC(=O)NC4CCCCCC4)cc3c2)cc1` (stereo not drawn) [2f, 3-(7-(2-(Cycloheptylamino)-2-oxoethoxy)naphthalen-2-yl)-3-(4-isopropoxyphenyl)propanoic acid], 0.101 ± 0.005 µM; that for `O=C(O)CC(c1ccc2c(c1)OCO2)c1ccc2ccc(OCC(=O)N[C@H]3C[C@@H]4CC[C@H]3C4)cc2c1` (stereo partly drawn) [5a, 3-(benzo[d][1,3]dioxol-5-yl)-3-(7-(2-(((1S,2S,4R)-bicyclo[2.2.1]heptan-2-yl)amino)-2-oxoethoxy)naphthalen-2-yl)propanoic acid], 0.02 ± 0.003 µM.
With `Cc1cc2c(cc1C(CC(=O)O)c1ccc3ccc(OCC(=O)NC4CCCCC4)cc3c1)CCO2` (stereo not drawn) [3t, 3-(7-(2-(cyclohexylamino)-2-oxoethoxy)naphthalen-2-yl)-3-(6-methyl-2,3-dihydrobenzofuran-5-yl)propanoic acid], the Ki is 0.032 ± 0.001 µM.
On to `COc1cc(C)c(C(CC(=O)O)c2ccc3ccc(OCC(=O)NC4CCCCC4)cc3c2)c(C)c1` (stereo not drawn) [3c, 3-(7-(2-(cyclohexylamino)-2-oxoethoxy)naphthalen-2-yl)-3-(4-methoxy-2,6-dimethylphenyl)propanoic acid], for which the Ki is 0.168 ± 0.003 µM.
